The numbers were not newly measured in patent US12257342B2, “Phenylephrine hydrochloride ready-to-use solution” (Hikma Pharmaceuticals USA Inc., priority 2015, dated 2025), which cites them from elsewhere.

Each structure is given as a SMILES string.

In this data set the test system is α−1 adrenergic receptor. The following applies: following an intravenous bolus administration.

For the molecule `CNC[C@H](O)c1cccc(O)c1.Cl` [Phenylephrine hydrochloride, (−)-m-Hydroxy-α-[(methylamino)methyl]benzyl alcohol hydrochloride], the “onset of blood pressure increase” value is “rapid” and the “persistence of the blood pressure effect” value is given as “up to 20 minutes”.
